Literature values in patent US20150132347A1, “TREATING INFLAMMATORY CONDITIONS AND IMPROVING ORAL HYGIENE USING METAL MODULATORS WITH METHYLSULFONYLMETHANE AS TRANSPORT ENHANCER” (priority 2012, published 2015).

Details: in water @ 79° F.

water solubility: 34 % w/v
Compound: CS(C)(=O)=O [MSM, methylsulfonylmethane]
